Source: US9574189B2, “Enzymatic encoding methods for efficient synthesis of large libraries” (Nuevolution A/S, priority 2005, dated 2017)
pKi: −log10 of the molar value.

Molecular target: T1, human alpha-thrombin (Homo sapiens, UniProt P00734)
T1 construct: purchased Heamatologic Technologies Inc
Assay: Ki of released display molecule against thrombin, chromogenic substrate S-2238
Type: biochemical
Conditions: display molecule released by UV cleavage; 5 min incubation at 22° C.; nonlinear regression of Vmax; 95% confidence interval 0-13 nM
Experimental: To determine the Ki of the released display molecule against the protease thrombin, human alpha-thrombin (Heamatologic Technologies Inc.) was diluted in buffer (0.015 units/μl) and the released display molecule was added. Following 5 minutes of incubation at 22° C. a chromogenic substrate (Chromogenix catalogue number S-2238) was added and the maximum turnover (Vmax) of the enzyme was determined in a by measuring the change in absorbance at 405 nm using a Versamax reader (Molecular Devices). This was repeated for different concentrations of the released display molecule and different concentrations of substrate. The Vmax values obtained were then fitted using nonlinear regression implemented in the Prism software (Graphpad) to obtain the Ki of the display molecule.

pKi: 8.28
SMILES: NC(=O)COc1ccc(Cl)cc1CNC(=O)[C@H]1CCCN1C(=O)[C@@H](N)C1CCCCC1
